Patent US9976141B2, “Compositions and methods for inhibiting gene expression of Hif2alpha” (Arrowhead Madison Inc., priority 2015, dated 2018)

Test system: human (tumor) Hif2α (EPAS1) mRNA
Assay: Hif2α knockdown in orthotopic RCC tumor bearing mice, single injection of RNAi trigger-delivery polymer conjugate, RT-qPCR (Table 7)
Assay type: in vivo
Conditions: single tail vein injection, relative to isotonic glucose
Summary of the method: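 Female athymic nude mice carried orthotopic A498-SEAP ccRCC kidney tumours, used 5–6 weeks after implantation. They received one tail-vein injection of RGD-targeted Hif2α RNAi trigger–polymer conjugate or isotonic glucose. Tumour Hif2α mRNA was measured by TaqMan RT-qPCR normalised to CycA (ΔΔCT) and expressed relative to glucose-treated mice.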

[1] = RNAi trigger 100 μg, polymer 100A 250 μg
[2] = RNAi trigger 100 μg, polymer 064 250 μg

Substance: AD01658 (antisense TUUCAUGAAAUCGUUACGUTT; sense ACGUAACGAUUUCAUGAAA; Hif2alpha RNAi agent antisense strand; modified_base 2,4,6,8,10,12,14,15,18 /mod_base = “2′-deoxy-2′-fluoro corresponding nucleoside”; modified_base 3,5,7,9,11,13,16,17,19 /mod_base = “2′-O-methyl corresponding nucleoside”; modified_base 2,3,21 /mod_base = “5′-phosphorothioate corresponding nucleotide”; Hif2alpha RNAi agent sense strand; modified_base 1,3,4,7,9,11,13,15,17,19 /mod_base = “2′-deoxy-2′-fluoro corresponding nucleoside”; modified_base 2,5,6,8,10,12,14,16,18 /mod_base = “2′-O-methyl corresponding nucleoside”; modified_base 2 /mod_base = “5′-phosphorothioate corresponding nucleoti)
- Relative Expression day 4 (Hif2α mRNA in kidney tumor) [1]: 0.138

Substance: AD01659 (antisense TUUCAUGAAAUCGUUACGUTT; sense ACGUAACGAUUUCAUGAAAT; Hif2alpha RNAi agent antisense strand; modified_base 2,4,6,8,10,12,14,15,18 /mod_base = “2′-deoxy-2′-fluoro corresponding nucleoside”; modified_base 3,5,7,9,11,13,16,17,19 /mod_base = “2′-O-methyl corresponding nucleoside”; modified_base 2,3,21 /mod_base = “5′-phosphorothioate corresponding nucleotide”; Hif2alpha RNAi agent sense strand; modified_base 1,3,4,7,9,11,13,15,17,19 /mod_base = “2′-deoxy-2′-fluoro corresponding nucleoside”; modified_base 2,5,6,8,10,12,14,16,18 /mod_base = “2′-O-methyl corresponding nucleoside”; modified_base 20 /mod_base = “3′-3′-linked nucleotide”; modified_base 1)
- Relative Expression day 4 (Hif2α mRNA in kidney tumor) [1]: 0.249

Substance: AD01884 (antisense UUUCAUGAAAUCGUUACGUTT; sense ACGUAACGAUUUCAUGAAAT; Hif2alpha RNAi agent antisense strand; modified_base 2,4,6,8,10,14,16,18 /mod_base = “2′-deoxy-2′-fluoro corresponding nucleoside”; modified_base 1,3,5,7,9,11,12,13,15,17,19 /mod_base = “2′-O-methyl corresponding nucleoside”; modified_base 2,3,21 /mod_base = “5′-phosphorothioate corresponding nucleotide”; Hif2alpha RNAi agent sense strand; modified_base 1,3,5,7,8,9,11,13,15,17,19 /mod_base = “2′-deoxy-2′-fluoro corresponding nucleoside”; modified_base 2,4,6,10,12,14,16,18 /mod_base = “2′-O-methyl corresponding nucleoside”; modified_base 20 /mod_base = “3′-3′-linked nucleotide”; modified_base)
- Relative Expression day 4 (Hif2α mRNA in kidney tumor) (RNAi trigger 50 μg, polymer 064 125 μg): 0.203
- Relative Expression day 4 (Hif2α mRNA in kidney tumor) (RNAi trigger 75 μg, polymer 064 187.5 μg): 0.227
- Relative Expression day 4 (Hif2α mRNA in kidney tumor) [2]: 0.091

Substance: AD01885 (antisense UUUCAUGAAAUCGUUACGUTT; sense UAUACGUAACGAUUUCAUGAAAT; Hif2alpha RNAi agent antisense strand; modified_base 2,4,6,8,10,14,16,18 /mod_base = “2′-deoxy-2′-fluoro corresponding nucleoside”; modified_base 1,3,5,7,9,11,12,13,15,17,19 /mod_base = “2′-O-methyl corresponding nucleoside”; modified_base 2,3,21 /mod_base = “5′-phosphorothioate corresponding nucleotide”; Hif2alpha RNAi agent sense strand; modified_base 2 modified base = “2′-hydroxy corresponding nucleoside”; modified_base 4,6,8,10,11,12,14,16,18,20,22 /mod_base = “2′-deoxy-2′-fluoro corresponding nucleoside”; modified_base 1,3,5,7,9,13,15,17,19,21 /mod_base = “2′-O-methyl corresponding nucl)
- Relative Expression day 4 (Hif2α mRNA in kidney tumor) [2]: 0.146

Substance: AD01886 (antisense UCUAGCAACAAAACCUUAATT; sense UUAAGGUUUUGUUGCUAGAT; Hif2alpha RNAi agent antisense strand; modified_base 2,4,6,8,10,13,14,16,18 /mod_base = “2′-deoxy-2′-fluoro corresponding nucleoside”; modified_base 1,3,5,7,9,11,12,15,17,19 /mod_base = “2′-O-methyl corresponding nucleoside”; modified_base 2,3,21 /mod_base = “5′-phosphorothioate corresponding nucleotide”; Hif2alpha RNAi agent sense strand; modified_base 1,3,5,8,9,11,13,15,17,19 /mod_base = “2′-deoxy-2′-fluoro corresponding nucleoside”; modified_base 2,4,6,7,10,12,14,16,18 /mod_base = “2′-O-methyl corresponding nucleoside”; modified_base 20 /mod_base = “3′-3′-linked nucleotide”; modified_base)
- Relative Expression day 4 (Hif2α mRNA in kidney tumor) [2]: 0.292

Substance: AD01887 (antisense UCUAGCAACAAAACCUUAATT; sense UUAAGGUUUUGUUGCUAGAT; Hif2alpha RNAi agent antisense strand; modified_base 2,4,6,9,10,13,14,16,18 /mod_base = “2′-deoxy-2′-fluoro corresponding nucleoside”; modified_base 1,3,5,7,8,11,12,15,17,19 /mod_base = “2′-O-methyl corresponding nucleoside”; modified_base 2,3,21 /mod_base = “5′-phosphorothioate corresponding nucleotide”; Hif2alpha RNAi agent sense strand; modified_base 3,5,8,9,13,15,17 /mod_base = “2′-deoxy-2′-fluoro corresponding nucleoside”; modified_base 1,2,4,6,7,10,11,12,14,16,18,19 /mod_base = “2′-O-methyl corresponding nucleoside”; modified_base 20 /mod_base = “3′-3′-linked nucleotide”; modified_base)
- Relative Expression day 4 (Hif2α mRNA in kidney tumor) [2]: 0.329

Substance: AD01888 (antisense UCUAGCAACAAAACCUUAATT; sense UUAAGGUUUUGUUGCUAGAT; Hif2alpha RNAi agent antisense strand; modified_base 2,4,6,8,10,12,14,15,18 /mod_base = “2′-deoxy-2′-fluoro corresponding nucleoside”; modified_base 1,3,5,7,9,11,13,16,17,19 /mod_base = “2′-O-methyl corresponding nucleoside”; modified_base 2,3,21 /mod_base = “5′-phosphorothioate corresponding nucleotide”; Hif2alpha RNAi agent sense strand; modified_base 1,3,4,7,9,11,13,15,17,19 /mod_base = “2′-deoxy-2′-fluoro corresponding nucleoside”; modified_base 2,5,6,8,10,12,14,16,18 /mod_base = “2′-O-methyl corresponding nucleoside”; modified_base 20 /mod_base = “3′-3′-linked nucleotide”; modified_base)
- Relative Expression day 4 (Hif2α mRNA in kidney tumor) [2]: 0.209

Substance: AD01889 (antisense UCUAGCAACAAAACCUUAATT; sense UUAAGGUUUUGUUGCUAGAT; Hif2alpha RNAi agent antisense strand; modified_base 2,4,6,9,10,12,14,15,18 /mod_base = “2′-deoxy-2′-fluoro corresponding nucleoside”; modified_base 1,3,5,7,8,11,13,16,17,19 /mod_base = “2′-O-methyl corresponding nucleoside”; modified_base 2,3,21 /mod_base = “5′-phosphorothioate corresponding nucleotide”; Hif2alpha RNAi agent sense strand; modified_base 3,4,7,9,13,15,17 /mod_base = “2′-deoxy-2′-fluoro corresponding nucleoside”; modified_base 1,2,5,6,8,10,11,12,14,16,18,19 /mod_base = “2′-O-methyl corresponding nucleoside”; modified_base 20 /mod_base = “3′-3′-linked nucleotide”; modified_base)
- Relative Expression day 4 (Hif2α mRNA in kidney tumor) [2]: 0.282

Substance: AD01890 (antisense UGUAAAACAAUUGUGUACUTT; sense AGUACACAAUUGUUUUACAT; Hif2alpha RNAi agent antisense strand; modified_base 2,4,6,8,10,13,14,16,18 /mod_base = “2′-deoxy-2′-fluoro corresponding nucleoside”; modified_base 1,3,5,7,9,11,12,15,17,19 /mod_base = “2′-O-methyl corresponding nucleoside”; modified_base 2,3,21 /mod_base = “5′-phosphorothioate corresponding nucleotide”; Hif2alpha RNAi agent sense strand; modified_base 1,3,5,8,9,11,13,15,17,19 /mod_base = “2′-deoxy-2′-fluoro corresponding nucleoside”; modified_base 2,4,6,7,10,12,14,16,18 /mod_base = “2′-O-methyl corresponding nucleoside”; modified_base 20 /mod_base = “3′-3′-linked nucleotide”; modified_base)
- Relative Expression day 4 (Hif2α mRNA in kidney tumor) [2]: 0.256
